From patent US8828940B2, “Method of treating an ischemia-reperfusion injury-related disorder by administering GPCR ligands” (priority 2006, dated 2014)
No end group written: not given here.

What was measured:
FPRL1 [1] = target: T1, FPRL1 (Homo sapiens, UniProt P25090); test: Calcium flux in FPRL1-transfected CHO-K1 cells; format: cell-based; set-up: expressed in transfected cells; host or cells: CHO-K1 (ATCC-CCL-61), transient co-transfection; details: for calcium flux relative to the negative control: CHO-K1 co-transfected with FPRL1 and Gα16, 1 μM, about 20-90 seconds
T1 sequence (P25090 1-351): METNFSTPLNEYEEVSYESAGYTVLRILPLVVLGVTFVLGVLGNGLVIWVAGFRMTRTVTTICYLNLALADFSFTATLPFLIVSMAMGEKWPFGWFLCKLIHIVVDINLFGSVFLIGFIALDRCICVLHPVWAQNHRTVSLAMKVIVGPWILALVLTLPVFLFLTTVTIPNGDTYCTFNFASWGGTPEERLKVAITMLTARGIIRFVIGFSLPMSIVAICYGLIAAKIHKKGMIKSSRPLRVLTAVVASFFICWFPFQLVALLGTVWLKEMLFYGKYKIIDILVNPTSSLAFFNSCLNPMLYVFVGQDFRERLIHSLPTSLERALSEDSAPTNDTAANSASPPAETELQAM
Description: (§1) The assay was carried out in CHO cells were transiently transfected with the GPCR of choice, by utilizing the promiscuous Gα16 to divert signaling to the Gq pathway, thus enabling readout of GPCR activation by testing for Calcium flux as described by Liu et al 2003 (Biomol Screen 8, 39-49).
(§2) All the peptides thus obtained were tested for their ability to change calcium flux in CHO-K1 cells (ATCC-CCL-61) transiently co-transfected with an expression vector containing the GPCR of choice and expression vector containing the Gα16 encoding cDNA. Expression constructs containing cDNA clones for MrgX1, MrgX2, Mas or FPRL1 were commercially obtained in one of the following expression vectors: pcDNA3.1, pCMV6, or MO2.
(§3) Transient transfections were performed using CHO-K1 cells as host cells. Cells (12 million) were plated into T75 flasks on the day preceding transfection. Cells were transfected with the appropriate GPCR expression vector and with a vector expressing Gα16 using a lipid-based reagent, MTI, according to the manufacturer's recommendation. Cells were transfected for 5 hours, then re-plated into 96-well dishes (60,000 cells per well) and grown overnight.
On the day of the experiment, cells were loaded with Fluo-4-NW (Invitrogen) according to the manufacturer's recommendation. Plates were loaded into a FlexStation™ (Molecular Devices) plate reader and fluorescence was monitored. […] Each 96 well plate contained cells transfected with one GPCR expression vector and each of the examined peptides was tested in triplicate.
(§4) We defined a hit as a peptide which elicited a clear and distinct increase in intracellular calcium that is clearly visible and statistically significant upon examination of the calcium trace for at least two repeats. The criterion for statistical significance was a p-value lower than 0.001 in a t-test comparing the levels of calcium before and after peptide addition.
The ability of Peptides to change calcium flux was examined in CHO-K1 cells co-transfected with FPRL1 and Gα16.
The P33-derived peptides (see FIG. 1): P33_V (SEQ ID NO:7), P33 (SEQ ID NO:6)-mono, P33 (SEQ ID NO:6)-dimer, P33—5 (SEQ ID NO:27), P33—8 (SEQ ID NO:14), P33—9 (SEQ ID NO:15) and P33—10 (SEQ ID NO:16) were tested for their ability to activate FPRL1 using the calcium flux assay in FPRL1-transfected CHO cells. […] The lack of activity of these peptides might be due to reduced potency; insufficient sensitivity of the experimental system, alternative interaction of the receptor, or activation of other pathways, which are not related to calcium flux. Thus, this interaction should be further characterized.

FPRL1 [2] = target: T1, FPRL1; test: Competitive radioligand binding assay to FPRL1 ([125I] WKYMVm); set-up: expressed in transfected cells; host or cells: CHO cells; details: 0.025 nM [125I] WKYMVm; CHO transfected cells
Description: The specific binding of Peptide 58 (SEQ ID NO:1) to FPRL1 was analyzed by testing its ability to compete with 0.025 nM [^125I] WKYMVm (W peptide), a known agonist of FPRL1, for binding to FPRL1 in CHO transfected cells. CKβ8-1 (aa 46-137), another known ligand of FPRL1 was used as a positive control in this assay (Chiang et al 2006, Pharmacological Reviews 58, 463-487). Peptides were incubated with cells for 90 minutes at 25° C., in the presence of Incubation Buffer (50 mM HEPES, pH 7.4, 100 mM NaCl, 5 mM KCl, 5 mM MgCl2, 2 mM Ca Cl2, 0.5% BSA) and the amount of radioactive W peptide was measured.

Mas receptor = target: T2, Mas receptor (Homo sapiens, UniProt P04201); test: Calcium flux in Mas-transfected CHO-K1 cells; format: cell-based; details: dose response, Mas-transfected cells
T2 construct: expressed in transfected cells; host or cells: CHO-K1 (ATCC-CCL-61), transient co-transfection
T2 sequence (P04201 1-325): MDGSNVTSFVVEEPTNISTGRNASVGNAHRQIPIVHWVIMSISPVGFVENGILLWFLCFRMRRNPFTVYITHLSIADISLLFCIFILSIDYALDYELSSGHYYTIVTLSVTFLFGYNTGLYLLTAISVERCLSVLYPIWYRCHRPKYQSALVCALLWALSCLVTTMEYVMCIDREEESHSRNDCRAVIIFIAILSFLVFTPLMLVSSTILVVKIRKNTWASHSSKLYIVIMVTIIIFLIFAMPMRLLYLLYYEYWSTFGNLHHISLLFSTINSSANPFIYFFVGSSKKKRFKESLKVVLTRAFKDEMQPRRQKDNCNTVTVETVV
Description: as §1, §2, §3
(§5) On the day of the experiment, cells were loaded with Fluo-4-NW (Invitrogen) according to the manufacturer's recommendation. Plates were loaded into a FlexStation™ (Molecular Devices) plate reader and fluorescence was monitored. Seventeen seconds following initiation of reading, cells were stimulated with the indicated agonist/compound at final concentration of 1 μM. Each 96 well plate contained cells transfected with one GPCR expression vector and each of the examined peptides was tested in triplicate.
as §4
Based on dose response experiments, EC50 best fit values were calculated by non-linear regression of sigmoidal dose-response curves, using Prism version 4 (GraphPad Software Inc., San Diego, Calif.). The formulae for the sigmoidal dose-response curves was defined as Y=Bottom+(Top−Bottom)/(1+10^(Log EC50−X)*HillSlope))
The ability of Peptides to change calcium flux was examined in CHO-K1 cells co-transfected with Mas receptor and Gα16.
The P33 monomer and dimer, as well as other P33 derivative peptides were compared for their ability to induce calcium flux in the Mas-transfected cells at 0.1, 1, 10, 100, 1000 and 10000 nM.

[3] = system: cardiac remodeling induced by Isoproterenol in Wistar rats; test: Cardiac remodeling induced by Isoproterenol; format: in vivo, rat
Description: The effect of the peptides […] (SEQ ID NO:10), […]-dimer ([…]) (SEQ ID NO9), P33_V (SEQ ID NO:7), P33-dimer (P33_D) (SEQ ID NO:6) on cardiac remodeling, was tested by determining their effect on heart hypertrophy and fibrosis (deposition of collagen I, III, and fibronectin) induced by Isoproterenol. Losartan (an antagonist of the known angiotensin II receptor, AT1, Kucharewicz et al., 2002; Hypertension, (40): 774-779) was used as positive control. The negative control group was treated with vehicle only. Additional control groups included rats not-treated with isoproterenol which were treated with the peptides, with Losartan or with the vehicle. The analysis included determination of the left ventricle mass and morphometry. In addition, immunofuorescence analysis of fibronectin and collagens I and III deposition was performed by confocal microcopy. Animals Acclimatization: Male Wistar rats Age: 13-14 weeks (250 to 300 g) were maintained in the animal facilities for 7 days before the beginning of the experiment. The animals were exposed to a brightness circle of light-dark cycle of 12hs (day-06:00 to 18:00; night-18:00 to 06:00), and the room temperature was kept at 23±2° C. Heart failure was induced by daily injections of isoproterenol (2 mg/kg/day, subcutaneously) during 7 days. […] Immunofluorescence-labeling and quantitative confocal microscopy was used to investigate the distribution and quantity of collagen types I, III and fibronectin present in the left ventricles. […] Optimal confocal settings (aperture, gain and laser power) were determined at the beginning of each imaging session and then held constant during the analysis of all the samples. […] For quantitative analysis of collagens I, III, and fibronectin, the ImageTool 2.0 image analysis program was used (see “[…] University of Texas Health Science Center at San Antonio website) to measure the fluorescence intensity in images randomly selected. […]

MrgX2 = target: T3, MrgX2 (Homo sapiens, UniProt Q96LB1); test: Calcium flux in MrgX2-transfected CHO-K1 cells; format: cell-based; details: for calcium flux relative to the negative control: CHO-K1 co-transfected with MrgX2 and Gα16, 1 μM, about 20-90 seconds; for eliciting calcium flux compared with cortistatin-14: summary statement, MrgX2-expressing cells
T3 construct: expressed in transfected cells; host or cells: CHO-K1 (ATCC-CCL-61), transient co-transfection
T3 sequence (Q96LB1 1-330): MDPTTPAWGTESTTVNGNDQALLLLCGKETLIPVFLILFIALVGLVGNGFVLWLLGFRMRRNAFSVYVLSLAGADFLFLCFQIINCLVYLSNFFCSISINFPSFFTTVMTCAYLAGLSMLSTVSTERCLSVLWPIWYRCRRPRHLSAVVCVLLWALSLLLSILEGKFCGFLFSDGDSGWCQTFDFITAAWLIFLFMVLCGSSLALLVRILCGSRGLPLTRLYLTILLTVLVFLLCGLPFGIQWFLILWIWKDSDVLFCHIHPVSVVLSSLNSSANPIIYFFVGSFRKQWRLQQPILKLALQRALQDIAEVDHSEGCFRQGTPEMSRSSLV
Description: as §1, §2, §3, §5, §4
The ability of Peptides to change calcium flux was examined in CHO-K1 cells co-transfected with MrgX2 and Gα16.

Row | Compound | calcium flux relative to the negative control (FPRL1 [1]) | calcium flux relative to the negative control (MrgX2) | eliciting calcium flux compared with cortistatin-14 (MrgX2) | other results
1 | TIPMFVPESTSKLQKFTSWFM-NH2 [Peptide P58] | increased calcium flux |  |  | calcium flux (P58 family) (FPRL1 [1]; dose response, FPRL1 transfected CHO cells): elicited calcium flux; Ki (FPRL1 [2]): 0.0541 µM
2 | FLGYCIYLNRKRRGDPAFKRRLRD (also: dimer via cysteine; listed as Homo sapiens) [Peptide P61_dimer] |  |  |  | ability to induce calcium flux, relative potency (P61 family) (Mas receptor): more potent than the monomeric P61 peptides; heart hypertrophy as measured by deposition of Fibronectin, Collagen I and Collagen III ([3]; 1 ug/hour/Kg by osmotic minipump, partial data, 3 out of 6 animals of each group): effective in reducing the heart hypertrophy; effect as measured by Fibronectin deposition ([3]; partial data, 3 out of 6 animals, FIG. 40): not significant
3 | CCCCc1nc(Cl)c(CO)n1Cc1ccc(-c2ccccc2-c2nn[nH]n2)cc1 [Losartan, reference compound] |  |  |  | left ventricle to body mass ratio (LV/BW) ([3]; isoproterenol 2 mg/kg/day s.c. 7 days, peptides 1 ug/hour/Kg by osmotic minipump, Losartan 1 mg/kg once a day by gavage): did not have an effect
4 | AHAQHFHKHQLWPSPFRALKPRP (listed as Homo sapiens) [Peptide 63] |  | increased calcium flux | superior to cortistatin-14 | 
5 | AAQATGPLQDNELPGLDERPPRAHAQHFHKHQLWPSPFRALKPRP (listed as Homo sapiens) [Peptide P94] | increased calcium flux | increased calcium flux | superior to cortistatin-14 | 
